pIC50: −log10 of the molar value. One block for each compound: values may come before it. Active and inactive are the calls of the source.
Tests used:
[1] = biological target: Sodium channel protein type 9 subunit alpha (Homo sapiens, UniProt Q15858); assay: Inhibition of human Nav1.7 expressed in CHO-K1 cells at -120 mV holding potential incubated over 5 mins measured at 15 secs interval by Qpatch clamp assay; format: cell-based
[2] = Ratio of total drug level in iv dosed rat brain to plasma measured 2 hrs post dose; format: ADME, organism-based; conditions: read-out: BPR
in vitro [3] = conditions: human, Caco-2
in vitro [4] = conditions: human, Caco-2; remark: listed apart in the source
[5] = Clearance in Sprague-Dawley rat administered as single iv bolus by LC-MS/MS analysis; format: ADME, organism-based; conditions: in vivo
[6] = Volume of distribution at steady state in Sprague-Dawley rat administered as single iv bolus by LC-MS/MS analysis; format: ADME, organism-based; conditions: in vivo, read-out: Vdss
[7] = AUC in Sprague-Dawley rat at 2 mg/kg administered as single dose via oral gavage by LC-MS/MS analysis; format: ADME, organism-based; conditions: in vivo
[8] = Oral bioavailability in Sprague-Dawley rat at 2 mg/kg administered as single dose via gavage by LC-MS/MS analysis; format: ADME, organism-based; conditions: in vivo
Cytochrome P450 1A2 = biological target: T1, Cytochrome P450 1A2 (Homo sapiens, UniProt P05177)
T1 sequence (P05177 whole entry): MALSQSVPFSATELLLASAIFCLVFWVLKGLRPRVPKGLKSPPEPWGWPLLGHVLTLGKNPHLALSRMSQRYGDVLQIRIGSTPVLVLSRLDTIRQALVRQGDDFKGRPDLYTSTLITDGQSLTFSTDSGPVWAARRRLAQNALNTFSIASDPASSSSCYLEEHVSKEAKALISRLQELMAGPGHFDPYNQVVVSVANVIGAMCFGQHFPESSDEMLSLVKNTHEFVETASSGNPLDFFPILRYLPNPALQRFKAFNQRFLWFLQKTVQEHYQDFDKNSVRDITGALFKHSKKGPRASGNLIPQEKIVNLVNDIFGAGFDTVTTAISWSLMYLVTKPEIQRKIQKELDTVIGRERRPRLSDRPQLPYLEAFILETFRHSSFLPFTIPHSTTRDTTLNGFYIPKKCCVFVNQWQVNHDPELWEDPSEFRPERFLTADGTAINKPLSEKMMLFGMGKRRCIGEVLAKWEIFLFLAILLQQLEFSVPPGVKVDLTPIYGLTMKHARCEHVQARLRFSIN

Cytochrome P450 2C9 = Cytochrome P450 2C9 (Homo sapiens, UniProt P11712)
Chain of Cytochrome P450 2C9 (P11712 whole entry): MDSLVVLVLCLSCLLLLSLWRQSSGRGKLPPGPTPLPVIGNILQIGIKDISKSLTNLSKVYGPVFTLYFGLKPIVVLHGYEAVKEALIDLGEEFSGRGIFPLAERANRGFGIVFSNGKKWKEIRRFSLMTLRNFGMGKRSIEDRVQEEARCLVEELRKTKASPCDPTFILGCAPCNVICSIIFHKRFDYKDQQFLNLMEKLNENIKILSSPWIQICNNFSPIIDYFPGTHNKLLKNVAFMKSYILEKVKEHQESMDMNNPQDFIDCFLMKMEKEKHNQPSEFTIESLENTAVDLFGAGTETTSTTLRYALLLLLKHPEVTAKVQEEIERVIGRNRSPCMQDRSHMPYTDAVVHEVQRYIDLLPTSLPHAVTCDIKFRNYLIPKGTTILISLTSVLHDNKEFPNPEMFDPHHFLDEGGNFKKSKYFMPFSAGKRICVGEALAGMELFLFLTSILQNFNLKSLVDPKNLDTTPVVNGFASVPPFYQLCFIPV

Cytochrome P450 2C19 = Cytochrome P450 2C19 (Homo sapiens, UniProt P33261)
Chain of Cytochrome P450 2C19 (P33261 whole entry): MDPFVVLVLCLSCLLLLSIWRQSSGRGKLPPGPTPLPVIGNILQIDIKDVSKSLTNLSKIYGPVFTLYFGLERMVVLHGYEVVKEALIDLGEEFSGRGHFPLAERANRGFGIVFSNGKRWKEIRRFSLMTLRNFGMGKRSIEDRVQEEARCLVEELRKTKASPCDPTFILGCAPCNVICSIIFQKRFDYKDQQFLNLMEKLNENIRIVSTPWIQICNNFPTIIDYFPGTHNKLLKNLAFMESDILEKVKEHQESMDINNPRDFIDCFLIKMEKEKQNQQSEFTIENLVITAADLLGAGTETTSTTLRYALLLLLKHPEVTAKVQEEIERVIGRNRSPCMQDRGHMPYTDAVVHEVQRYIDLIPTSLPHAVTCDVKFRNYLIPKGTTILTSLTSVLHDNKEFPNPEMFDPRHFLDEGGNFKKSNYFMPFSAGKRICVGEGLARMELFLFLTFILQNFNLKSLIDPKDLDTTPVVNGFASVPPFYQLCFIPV

Cytochrome P450 2D6 = Cytochrome P450 2D6 (Homo sapiens, UniProt P10635)
Chain of Cytochrome P450 2D6 (P10635 whole entry): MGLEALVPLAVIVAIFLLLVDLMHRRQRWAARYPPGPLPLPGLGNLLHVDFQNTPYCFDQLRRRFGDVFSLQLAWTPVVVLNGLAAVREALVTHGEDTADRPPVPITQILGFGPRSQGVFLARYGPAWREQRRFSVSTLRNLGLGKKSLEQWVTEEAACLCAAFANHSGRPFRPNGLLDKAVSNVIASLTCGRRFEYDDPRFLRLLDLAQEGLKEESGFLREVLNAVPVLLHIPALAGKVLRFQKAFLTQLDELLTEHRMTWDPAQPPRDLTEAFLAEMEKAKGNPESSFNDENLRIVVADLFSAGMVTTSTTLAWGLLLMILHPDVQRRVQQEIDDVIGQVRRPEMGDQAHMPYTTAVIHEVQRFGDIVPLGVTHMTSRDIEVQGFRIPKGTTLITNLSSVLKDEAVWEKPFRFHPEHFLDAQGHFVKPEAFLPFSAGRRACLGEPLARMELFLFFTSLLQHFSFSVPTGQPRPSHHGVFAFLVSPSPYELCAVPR

Cytochrome P450 3A4 = Cytochrome P450 3A4 (Homo sapiens, UniProt P08684)
Chain of Cytochrome P450 3A4 (P08684 whole entry): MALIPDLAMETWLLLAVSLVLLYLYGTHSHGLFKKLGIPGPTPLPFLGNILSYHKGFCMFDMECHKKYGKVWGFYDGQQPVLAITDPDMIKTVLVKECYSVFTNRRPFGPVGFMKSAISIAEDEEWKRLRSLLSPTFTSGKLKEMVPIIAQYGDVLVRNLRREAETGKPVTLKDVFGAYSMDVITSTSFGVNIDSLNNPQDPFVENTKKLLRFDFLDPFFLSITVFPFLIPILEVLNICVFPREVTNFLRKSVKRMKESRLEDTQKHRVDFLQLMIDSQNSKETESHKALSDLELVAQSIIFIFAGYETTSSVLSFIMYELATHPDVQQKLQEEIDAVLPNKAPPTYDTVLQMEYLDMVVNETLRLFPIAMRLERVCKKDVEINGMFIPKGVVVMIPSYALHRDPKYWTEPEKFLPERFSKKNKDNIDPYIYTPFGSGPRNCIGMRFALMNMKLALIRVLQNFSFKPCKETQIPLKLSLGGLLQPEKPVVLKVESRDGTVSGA

[9] = AUC in Sprague-Dawley rat at 10 mg/kg administered as single dose via oral gavage by LC-MS/MS analysis; format: ADME, organism-based; conditions: in vivo
[10] = Oral bioavailability in Sprague-Dawley rat at 10 mg/kg administered as single dose via gavage by LC-MS/MS analysis; format: ADME, organism-based; conditions: in vivo
Rattus norvegicus [11] = assay: Antinociceptive activity in Sprague-Dawley rat formalin-induced nociception model assessed as inhibition of formalin-induced flinches in phase 2 at 30 mg/kg, po administered via oral gavage 60 mins before formalin challenge measured for 1 hr post dose; format: functional, organism-based
Rattus norvegicus [12] = assay: Antinociceptive activity in Sprague-Dawley rat formalin-induced nociception model assessed as inhibition of formalin-induced flinches in phase 1 at 30 mg/kg, po administered via oral gavage 60 mins before formalin challenge measured for 1 hr post dose; format: functional, organism-based
Rattus norvegicus [13] = assay: Antiallodynic activity in Sprague-Dawley rat spinal nerve ligation model assessed as reduction in mechanical allodynia by measuring paw withdrawal threshold at 100 mg/kg, po measured at 1 to 2 hrs post dose; format: functional, organism-based
Rattus norvegicus [14] = assay: Antiallodynic activity in Sprague-Dawley rat spinal nerve ligation model assessed as reduction in mechanical allodynia by measuring paw withdrawal threshold at 30 mg/kg, po measured at 1 to 2 hrs post dose; format: functional, organism-based
Homo sapiens [15] = organism: Homo sapiens; assay: Selectivity ratio of IC50 for human Nav1.4 to IC50 for human Nav1.7 expressed in CHO-K1 cells; format: cell-based
Homo sapiens [16] = organism: Homo sapiens; assay: Selectivity ratio of IC50 for human Nav1.5 expressed in HEK293 cells to IC50 for human Nav1.7 expressed in CHO-K1 cells; format: cell-based

Chain of Sodium channel protein type 9 subunit alpha (Q15858 whole entry): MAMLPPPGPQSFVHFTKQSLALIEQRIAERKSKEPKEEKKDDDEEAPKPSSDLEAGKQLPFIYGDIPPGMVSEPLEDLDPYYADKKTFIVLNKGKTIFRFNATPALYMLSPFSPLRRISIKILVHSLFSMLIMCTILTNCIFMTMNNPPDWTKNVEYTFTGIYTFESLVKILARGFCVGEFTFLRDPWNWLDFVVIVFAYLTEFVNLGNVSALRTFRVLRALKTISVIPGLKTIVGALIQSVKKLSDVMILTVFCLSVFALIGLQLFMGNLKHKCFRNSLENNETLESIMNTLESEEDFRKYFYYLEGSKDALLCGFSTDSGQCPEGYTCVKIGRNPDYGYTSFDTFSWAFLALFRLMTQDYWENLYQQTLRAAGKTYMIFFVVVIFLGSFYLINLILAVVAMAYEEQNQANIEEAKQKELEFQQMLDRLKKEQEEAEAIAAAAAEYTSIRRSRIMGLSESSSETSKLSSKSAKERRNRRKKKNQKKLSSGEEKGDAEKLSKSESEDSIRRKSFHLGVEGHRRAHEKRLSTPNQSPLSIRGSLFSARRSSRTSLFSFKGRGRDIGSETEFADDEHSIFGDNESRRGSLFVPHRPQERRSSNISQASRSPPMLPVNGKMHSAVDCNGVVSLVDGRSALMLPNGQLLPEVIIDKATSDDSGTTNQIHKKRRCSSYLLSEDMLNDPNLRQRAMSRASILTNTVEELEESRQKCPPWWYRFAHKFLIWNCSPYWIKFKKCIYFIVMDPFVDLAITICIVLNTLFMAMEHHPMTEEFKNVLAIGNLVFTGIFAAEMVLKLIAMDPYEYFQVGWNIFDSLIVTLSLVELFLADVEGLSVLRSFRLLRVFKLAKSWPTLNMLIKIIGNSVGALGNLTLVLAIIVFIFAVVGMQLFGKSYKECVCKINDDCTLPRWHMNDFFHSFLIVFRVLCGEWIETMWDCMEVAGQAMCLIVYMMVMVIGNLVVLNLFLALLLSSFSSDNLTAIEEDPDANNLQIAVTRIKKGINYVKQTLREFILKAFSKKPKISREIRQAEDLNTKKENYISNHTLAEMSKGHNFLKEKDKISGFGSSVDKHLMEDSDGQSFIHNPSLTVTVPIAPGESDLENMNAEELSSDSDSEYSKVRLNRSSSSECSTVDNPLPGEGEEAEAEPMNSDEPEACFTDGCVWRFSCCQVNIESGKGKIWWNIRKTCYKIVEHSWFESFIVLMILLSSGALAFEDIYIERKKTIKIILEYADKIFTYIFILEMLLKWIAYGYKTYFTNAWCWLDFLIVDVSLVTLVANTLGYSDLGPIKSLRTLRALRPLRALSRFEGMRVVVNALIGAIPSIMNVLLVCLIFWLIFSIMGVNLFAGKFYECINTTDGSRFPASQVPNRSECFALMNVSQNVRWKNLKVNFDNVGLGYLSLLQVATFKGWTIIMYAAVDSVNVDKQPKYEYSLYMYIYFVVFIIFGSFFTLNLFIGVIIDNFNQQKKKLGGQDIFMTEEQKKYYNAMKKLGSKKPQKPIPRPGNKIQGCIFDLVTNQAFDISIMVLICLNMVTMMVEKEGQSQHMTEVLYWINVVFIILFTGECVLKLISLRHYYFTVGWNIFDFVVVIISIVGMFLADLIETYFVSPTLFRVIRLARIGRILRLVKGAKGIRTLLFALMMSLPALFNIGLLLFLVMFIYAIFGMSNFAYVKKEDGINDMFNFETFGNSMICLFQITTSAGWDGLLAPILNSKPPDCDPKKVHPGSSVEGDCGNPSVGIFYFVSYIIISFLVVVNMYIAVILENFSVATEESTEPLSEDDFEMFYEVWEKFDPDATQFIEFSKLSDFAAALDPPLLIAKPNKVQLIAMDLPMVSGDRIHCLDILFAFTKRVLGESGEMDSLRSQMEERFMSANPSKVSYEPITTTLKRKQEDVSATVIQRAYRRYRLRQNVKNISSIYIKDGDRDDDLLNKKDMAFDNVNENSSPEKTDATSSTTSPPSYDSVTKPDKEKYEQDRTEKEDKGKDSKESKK

pIC50 [1]: 7.85
Kp at 2 h [2]: 0.6
Papp A→B at 2 h, 2 µM (in vitro [3]): 10 ×10⁻⁶ cm/s
efflux ratio at 2 h, 2 µM (in vitro [4]): 1.8
Compound: CN(C)[C@@H]1CCC=C(c2ccc(F)cc2)[C@H]1COc1cc(F)c(S(=O)(=O)Nc2cscn2)cc1Cl.Cl (racemic)

pIC50 [1]: 8.22
clearance [5]: 27.5 mL/min/kg
Vd [6]: 3.07 L/kg
AUC [7]: 0.29 µM·h
bioavailability [8]: 14%
pIC50 (Cytochrome P450 1A2): < 4.30
pIC50 (Cytochrome P450 2C9): 6.70
pIC50 (Cytochrome P450 2C19): 5.68
pIC50 (Cytochrome P450 2D6): 4.85
pIC50 (Cytochrome P450 3A4): 4.78
Compound: CCN[C@@H]1CCC=C(c2ccc(F)cc2)[C@H]1CNc1cc(F)c(S(=O)(=O)Nc2nccs2)cc1Cl.Cl

pIC50 [1]: 7.48
clearance [5]: 44.2 mL/min/kg
Vd [6]: 4.24 L/kg
AUC [7]: 0.04 µM·h
bioavailability [8]: 3%
pIC50 (Cytochrome P450 1A2): < 4.30
pIC50 (Cytochrome P450 2C9): 6.30
pIC50 (Cytochrome P450 2C19): 5.25
pIC50 (Cytochrome P450 2D6): 4.37
pIC50 (Cytochrome P450 3A4): < 4.30
Compound: Cl.N[C@@H]1CCC=C(c2ccc(F)cc2)[C@H]1CNc1cc(F)c(S(=O)(=O)Nc2nccs2)cc1Cl

pIC50 [1]: 5.94
Compound: O=S(=O)(Nc1cscn1)c1cc(Cl)c(OC[C@@H]2C(c3ccc(F)cc3)=CCC[C@H]2N2CCC2)cc1F (racemic)

pIC50 [1]: 7.23
clearance [5]: 26.1 mL/min/kg
Vd [6]: 3.22 L/kg
AUC [7]: 0.62 µM·h
bioavailability [8]: 27%
Compound: Cl.N[C@@H]1CCC=C(c2ccc(F)cc2)[C@H]1CSc1cc(F)c(S(=O)(=O)Nc2cscn2)cc1Cl

pIC50 [1]: 7.03
Kp at 2 h [2]: 0.08
Papp A→B at 2 h, 2 µM (in vitro [3]): 1.1 ×10⁻⁶ cm/s
efflux ratio at 2 h, 2 µM (in vitro [4]): 37
Compound: CC(C)N[C@@H]1CCC=C(c2ccc(F)cc2)[C@H]1COc1cc(F)c(S(=O)(=O)Nc2cscn2)cc1Cl.Cl (racemic)

pIC50 [1]: 5.63
Compound: O=S(=O)(Nc1cscn1)c1cc(Cl)c(OC[C@@H]2C(c3ccc(F)cc3)=CCC[C@H]2n2ccnc2)cc1F (racemic)

pIC50 [1]: 6.51
Compound: CCN(CC)[C@@H]1CCC=C(c2ccc(F)cc2)[C@H]1COc1cc(F)c(S(=O)(=O)Nc2cscn2)cc1Cl (racemic)

pIC50 [1]: 6.11
Compound: O=S(=O)(Nc1cscn1)c1cc(Cl)c(OC[C@@H]2C(c3ccc(F)cc3)=CCC[C@H]2n2cnnc2)cc1F (racemic)

pIC50 [1]: 8.30
clearance [5]: 46.5 mL/min/kg
Vd [6]: 6.05 L/kg
AUC [7]: 0.17 µM·h
bioavailability [8]: 14%
pIC50 (Cytochrome P450 1A2): < 4.30
pIC50 (Cytochrome P450 2C9): 7.00
pIC50 (Cytochrome P450 2C19): 5.48
pIC50 (Cytochrome P450 2D6): 4.74
pIC50 (Cytochrome P450 3A4): 5.29
Compound: Cl.N[C@@H]1CCC=C(c2ccc(F)cc2)[C@H]1CSc1cc(F)c(S(=O)(=O)Nc2nccs2)cc1Cl

pIC50 [1]: 7.32
clearance [5]: 66.6 mL/min/kg
Vd [6]: 6.21 L/kg
AUC [9]: 0.12 µM·h
bioavailability [10]: 3%
pIC50 (Cytochrome P450 1A2): < 4.30
pIC50 (Cytochrome P450 2C9): 6.70
pIC50 (Cytochrome P450 2C19): 5.82
pIC50 (Cytochrome P450 2D6): 5.35
pIC50 (Cytochrome P450 3A4): 4.67
Compound: CCN[C@@H]1CCC=C(c2ccc(F)cc2)[C@H]1COc1cc(F)c(S(=O)(=O)Nc2nccs2)cc1Cl.Cl (racemic)

pIC50 [1]: 7.23
Kp at 2 h [2]: 0.08
Papp A→B at 2 h, 2 µM (in vitro [3]): 0.4 ×10⁻⁶ cm/s
efflux ratio at 2 h, 2 µM (in vitro [4]): 70
Compound: CCN[C@@H]1CCC=C(c2ccc(F)cc2)[C@H]1COc1cc(F)c(S(=O)(=O)Nc2cscn2)cc1Cl.Cl (racemic)

pIC50 [1]: 6.29
Compound: CC(=O)N[C@@H]1CCC=C(c2ccc(F)cc2)[C@H]1COc1cc(F)c(S(=O)(=O)Nc2cscn2)cc1Cl (racemic)

pIC50 [1]: 7.00
Compound: CCN[C@@H]1CCC=C(c2ccc(F)cc2)[C@H]1CSc1cc(F)c(S(=O)(=O)Nc2cscn2)cc1Cl

pIC50 [1]: 8.70
clearance [5]: 29 mL/min/kg
Vd [6]: 3.26 L/kg
AUC [9]: 0.03 µM·h
bioavailability [10]: 0.3%
pIC50 (Cytochrome P450 1A2): < 4.30
pIC50 (Cytochrome P450 2C9): 7.00
pIC50 (Cytochrome P450 2C19): 5.10
pIC50 (Cytochrome P450 2D6): 4.74
pIC50 (Cytochrome P450 3A4): < 4.30
Compound: Cl.N[C@@H]1CCC=C(c2ccc(F)cc2)[C@H]1COc1cc(F)c(S(=O)(=O)Nc2nccs2)cc1Cl (racemic)

Compound: CCN[C@@H]1CCC=C(c2ccc(F)cc2)[C@H]1COc1cc(F)c(S(=O)(=O)Nc2cscn2)cc1Cl
inhibition (Rattus norvegicus [11]): Active
inhibition (Rattus norvegicus [12]): inactive
Activity (Rattus norvegicus [13]): Active
Activity (Rattus norvegicus [14]): inactive
Ratio IC50 (Homo sapiens [15]): > 30
Ratio IC50 (Homo sapiens [16]): > 30

pIC50 [1]: 6.77
Kp at 2 h [2]: 0.04
Papp A→B at 2 h, 2 µM (in vitro [3]): 0.2 ×10⁻⁶ cm/s
efflux ratio at 2 h, 2 µM (in vitro [4]): 127
Compound: CN[C@@H]1CCC=C(c2ccc(F)cc2)[C@H]1COc1cc(F)c(S(=O)(=O)Nc2cscn2)cc1Cl.Cl (racemic)

pIC50 [1]: 6.70
Compound: CCN[C@@H]1CCC=C(c2ccc(F)cc2)[C@H]1CNc1cc(F)c(S(=O)(=O)Nc2cscn2)cc1Cl

— ChEMBL document CHEMBL4177611, “Discovery of aminocyclohexene analogues as selective and orally bioavailable hNav1.7 inhibitors for analgesia” (Bioorg Med Chem Lett, 2017)
